In article PMC11508649 (International Journal of Molecular Sciences, 2024):
Structures can show the parent of a compound that is named as a salt. Where two headings read alike, the source gives them in different places. Marks after values point to notes of the source that are not given here.

Tests used:
human 5-HT1A receptor [1] = target: T1, human 5-HT1A receptor (Homo sapiens, UniProt P08908); conditions: previously described 1H-indole analogues; read-out: Ki ± SEM 5-HT1A; cited from earlier work
T1 construct: purchased PerkinElmer; host or cells: CHO-K1
T1 sequence (P08908 1-422): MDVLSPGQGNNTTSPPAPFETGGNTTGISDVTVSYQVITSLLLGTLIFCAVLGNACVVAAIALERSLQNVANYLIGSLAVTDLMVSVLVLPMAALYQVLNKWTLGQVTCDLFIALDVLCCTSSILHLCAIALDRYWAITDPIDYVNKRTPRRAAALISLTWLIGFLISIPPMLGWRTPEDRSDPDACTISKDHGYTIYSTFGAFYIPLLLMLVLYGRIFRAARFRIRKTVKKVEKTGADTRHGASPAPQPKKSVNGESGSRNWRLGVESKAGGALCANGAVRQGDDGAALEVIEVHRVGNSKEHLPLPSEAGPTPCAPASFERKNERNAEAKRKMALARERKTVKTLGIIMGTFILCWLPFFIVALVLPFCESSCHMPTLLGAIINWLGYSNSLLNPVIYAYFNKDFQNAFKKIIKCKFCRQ

[2] = target: T2, human serotonin transporter (Homo sapiens, UniProt P31645); conditions: previously described 1H-indole analogues; read-out: Ki ± SEM SERT; cited from earlier work
T2 construct: purchased PerkinElmer; host or cells: HEK-293

[3] = target: human norepinephrine transporter (Homo sapiens, UniProt P23975); assay: NET binding assay ([3H]-nisoxetine, MDCK membranes); conditions: at 1 µM
Procedure: We performed radioligand binding assays using membranes from CHO-K1 cells stably transfected with human DAT and membranes from MDCK cells stably transfected with human NET. This was accomplished by assessing the displacement of [^3H]-WIN35,428 and [^3H]-nisoxetine from cloned human DAT and NET, respectively.
(§3) Ten-micromolar stock solutions of tested compounds were prepared in DMSO. […] Each compound was tested in a screening assay at final concentrations of 10 µM and 1 µM. Results were expressed as percent inhibition of radioligand binding. Reference compounds were tested in 8 concentrations from 10^−5 to 10^−12 M (final concentration).
Radioligand binding was performed using membranes from MDCK cells stably transfected with the human norepinephrine transporter (PerkinElmer, Waltham, MA, USA). All assays were carried out in duplicates. Measures of 50 µL of working solution of the tested compounds, 50 µL of [^3H]-nisoxetine (final concentration 4 nM) and 150 µL of diluted membranes (3 µg protein per well) prepared in assay buffer (50 mM Tris-HCl, pH 7.4, 120 mM NaCl; 5 mM KCl) were transferred to a polypropylene 96-well microplate using the 96-well pipetting station Rainin Liquidator (MettlerToledo, Beverly, MA, USA). […] The microplate was covered with sealing tape, mixed and incubated for 60 min at 4 °C. The reaction was terminated by rapid filtration through GF/C filter mate pre-soaked with 0.5% polyethyleneimine for 30 min. Ten rapid washes with 200 µL of 50 mM Tris buffer (4 °C, pH 7.4) were performed using the automated harvester system Harvester-96 MACH III FM (Tomtec, Hamden, CT, USA). […] Radioactivity was counted using a MicroBeta2 scintillation counter (PerkinElmer, Turku, Finland). Data were fitted to a one-site curve-fitting equation with Prism 5 (GraphPad Software), and Ki values were estimated using the Cheng–Prusoff equation.

[4] = target: human dopamine transporter (Homo sapiens, UniProt Q01959); assay: DAT binding assay ([3H]-WIN 35,428, CHO-K1 membranes); conditions: for Selectivity Ratio hDAT/hSERT: ratio of Ki values
Procedure: as §3
Radioligand binding was performed using membranes from CHO-K1 cells stably transfected with the human dopamine transporter (PerkinElmer, Waltham, MA, USA). All assays were carried out in duplicates. […] The microplate was covered with sealing tape, mixed and incubated for 120 min at 4 °C. The reaction was terminated by rapid filtration through GF/C filter mate pre-soaked with 0.5% polyethyleneimine for 30 min. Ten rapid washes with 200 µL of 50 mM Tris buffer (4 °C, pH 7.4) were performed using the automated harvester system Harvester-96 MACH III FM (Tomtec, Hamden, CT, USA). […] Radioactivity was counted using a MicroBeta2 scintillation counter (PerkinElmer, Turku, Finland). Data were fitted to a one-site curve-fitting equation with Prism 5 (GraphPad Software), and Ki values were estimated using the Cheng–Prusoff equation.

α1-adrenoceptor = assay: ADRA1 receptor binding assay ([3H]-prazosin, rat cortex); conditions: read-out: Ki ± SEM α1
[5] = target: T2, human serotonin transporter; assay: Serotonin transporter radioligand binding ([3H]-imipramine, HEK-293 membranes)
Procedure: (§1) Each compound was tested in 6 concentrations from 10–5 to 10–10 M (final concentration).
(§2) All assays were carried out in duplicates.

human 5-HT1A receptor [6] = target: T1, human 5-HT1A receptor; assay: 5-HT1A receptor radioligand binding ([3H]-8-OH-DPAT, CHO-K1 membranes); conditions: displacement of [3H]-8-OH-DPAT, mean ± SEM of three experiments, NC = not converged
Procedure: as §1, §2

[7] = displacement of [3H]-imipramine, HEK-293 membranes, mean ± SEM of three experiments, read-out: Ki ± SEM SERT

T2 sequence (P31645 whole entry): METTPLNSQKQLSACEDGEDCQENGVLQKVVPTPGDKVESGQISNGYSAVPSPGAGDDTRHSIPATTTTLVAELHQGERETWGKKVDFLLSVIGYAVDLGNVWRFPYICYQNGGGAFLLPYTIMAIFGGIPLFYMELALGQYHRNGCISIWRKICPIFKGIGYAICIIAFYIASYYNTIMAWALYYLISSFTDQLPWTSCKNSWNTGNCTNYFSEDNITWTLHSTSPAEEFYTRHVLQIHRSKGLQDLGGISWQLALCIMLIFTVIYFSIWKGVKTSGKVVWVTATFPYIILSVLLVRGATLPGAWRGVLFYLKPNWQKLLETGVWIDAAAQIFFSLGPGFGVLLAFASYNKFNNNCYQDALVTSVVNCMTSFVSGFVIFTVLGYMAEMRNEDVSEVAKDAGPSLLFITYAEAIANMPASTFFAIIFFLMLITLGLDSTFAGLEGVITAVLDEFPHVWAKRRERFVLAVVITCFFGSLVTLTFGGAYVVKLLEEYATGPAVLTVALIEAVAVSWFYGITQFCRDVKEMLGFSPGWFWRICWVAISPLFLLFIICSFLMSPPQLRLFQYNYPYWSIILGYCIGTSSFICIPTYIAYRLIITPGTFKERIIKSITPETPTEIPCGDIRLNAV
human norepinephrine transporter, sequence (P23975 whole entry): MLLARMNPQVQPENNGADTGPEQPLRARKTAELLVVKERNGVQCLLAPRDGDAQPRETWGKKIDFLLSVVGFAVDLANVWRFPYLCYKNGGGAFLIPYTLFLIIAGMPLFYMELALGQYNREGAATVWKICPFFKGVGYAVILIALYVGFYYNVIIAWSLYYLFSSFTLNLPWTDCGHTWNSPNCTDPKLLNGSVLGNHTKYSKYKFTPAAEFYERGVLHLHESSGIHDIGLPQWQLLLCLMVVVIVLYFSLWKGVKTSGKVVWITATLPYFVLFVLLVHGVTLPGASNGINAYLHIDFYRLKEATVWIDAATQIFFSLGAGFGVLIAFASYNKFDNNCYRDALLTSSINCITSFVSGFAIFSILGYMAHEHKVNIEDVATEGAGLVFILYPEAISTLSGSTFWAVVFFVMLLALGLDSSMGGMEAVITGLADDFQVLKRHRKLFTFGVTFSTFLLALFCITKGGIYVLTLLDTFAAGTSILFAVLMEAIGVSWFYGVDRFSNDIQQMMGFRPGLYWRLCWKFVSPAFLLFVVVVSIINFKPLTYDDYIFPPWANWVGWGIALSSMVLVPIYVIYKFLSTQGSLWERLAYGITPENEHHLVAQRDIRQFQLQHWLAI
human dopamine transporter, sequence (Q01959 whole entry): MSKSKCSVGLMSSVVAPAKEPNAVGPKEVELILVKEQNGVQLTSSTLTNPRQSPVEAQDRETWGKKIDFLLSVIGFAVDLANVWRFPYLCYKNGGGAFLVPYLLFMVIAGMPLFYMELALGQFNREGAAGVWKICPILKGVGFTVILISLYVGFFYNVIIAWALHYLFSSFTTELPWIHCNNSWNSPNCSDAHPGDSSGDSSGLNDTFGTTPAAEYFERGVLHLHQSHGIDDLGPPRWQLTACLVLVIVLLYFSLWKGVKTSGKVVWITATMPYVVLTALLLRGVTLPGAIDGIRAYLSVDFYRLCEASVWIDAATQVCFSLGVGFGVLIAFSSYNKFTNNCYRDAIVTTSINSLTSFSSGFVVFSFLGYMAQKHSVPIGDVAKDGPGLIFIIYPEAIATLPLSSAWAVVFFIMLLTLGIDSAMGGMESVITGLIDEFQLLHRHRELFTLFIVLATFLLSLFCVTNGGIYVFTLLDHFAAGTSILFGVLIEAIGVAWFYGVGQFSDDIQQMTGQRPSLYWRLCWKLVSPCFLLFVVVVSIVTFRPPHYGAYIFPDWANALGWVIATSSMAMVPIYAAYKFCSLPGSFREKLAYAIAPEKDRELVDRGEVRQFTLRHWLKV

Row | Compound | Ki (human 5-HT1A receptor [1]) | Ki [2] | melting point | also measured
1 | O=C1CC(c2c[nH]c3ccccc23)C(=O)N1CCN1CC=C(c2c[nH]c3ccccc23)CC1 (stereo not drawn) [Compound 15] | 250 ± 6.8 nM | 33.8 ± 3.2 nM |  | 
2 | COc1ccc2[nH]cc(C3CC(=O)N(CCN4CC=C(c5c[nH]c6ccccc56)CC4)C3=O)c2c1 (stereo not drawn) [Compound 18] | 348 ± 12.1 nM | 14.7 ± 1.5 nM |  | 
3 | O=C1CC(c2c[nH]c3ccc(F)cc23)C(=O)N1CCCCN1CC=C(c2c[nH]c3ccccc23)CC1 (stereo not drawn) [Compound 19] | 48.2 ± 2.9 nM | 33.3 ± 2.9 nM |  | 
4 | O=C1CC(c2c[nH]c3ccc(F)cc23)C(=O)N1CCN1CC=C(c2c[nH]c3ncccc23)CC1 (stereo not drawn) (as salt: hydrochloride) [Compound 12, 1-(2-(4-(1H-Pyrrolo[2,3-b]pyridin-3-yl)-3,6-dihydropyridin-1(2H)-yl)ethyl)-3-(5-fluoro-1H-indol-3-yl)pyrrolidine-2,5-dione] |  |  | 250 to 252 °C | 
5 | O=C1CC(c2c[nH]c3ccccc23)C(=O)N1CCCN1CC=C(c2c[nH]c3ncccc23)CC1 (stereo not drawn) (as salt: hydrochloride) [Compound 5, 1-(3-(4-(1H-Pyrrolo[2,3-b]pyridin-3-yl)-3,6-dihydropyridin-1(2H)-yl)propyl)-3-(1H-indol-3-yl)pyrrolidine-2,5-dione] |  |  | 97 to 102 °C | 
6 | O=C1CC(c2c[nH]c3ccccc23)C(=O)N1CCN1CC=C(c2c[nH]c3ncccc23)CC1 (stereo not drawn) (as salt: hydrochloride) [Compound 6, 1-(2-(4-(1H-Pyrrolo[2,3-b]pyridin-3-yl)-3,6-dihydropyridin-1(2H)-yl)ethyl)-3-(1H-indol-3-yl)pyrrolidine-2,5-dione] |  |  | 233 to 235 °C | 
7 | O=C1CC(c2c[nH]c3ccc(F)cc23)C(=O)N1CCN1CC=C(c2c[nH]c3ncccc23)CC1 (stereo not drawn) [Compound 12, 1-(2-(4-(1H-Pyrrolo[2,3-b]pyridin-3-yl)-3,6-dihydropyridin-1(2H)-yl)ethyl)-3-(5-fluoro-1H-indol-3-yl)pyrrolidine-2,5-dione] |  |  |  | hNET screening procedure, displacement % [3]: 42% ^a; Ki [4]: 229 ± 21.4 nM; Selectivity Ratio hDAT/hSERT [4]: 0.9; Ki (α1-adrenoceptor): 456 ± 6 nM; Ki [5, 7]: 252 ± 24 nM
8 | O=C1CC(c2c[nH]c3ccccc23)C(=O)N1CCCCN1CC=C(c2c[nH]c3ccccc23)CC1 (stereo not drawn) [Compound 13] | 12.5 ± 1.7 nM | 11.3 ± 0.6 nM |  | 
9 | O=C1CC(c2c[nH]c3ccccc23)C(=O)N1CCCN1CC=C(c2c[nH]c3ccccc23)CC1 (stereo not drawn) [Compound 14] | 161 ± 17.5 nM | 4 ± 0.1 nM |  | 
10 | O=C1CC(c2c[nH]c3ccc(F)cc23)C(=O)N1CCCCN1CC=C(c2c[nH]c3ncccc23)CC1 (stereo not drawn) (as salt: hydrochloride) [Compound 10, 1-(4-(4-(1H-Pyrrolo[2,3-b]pyridin-3-yl)-3,6-dihydropyridin-1(2H)-yl)butyl)-3-(5-fluoro-1H-indol-3-yl)pyrrolidine-2,5-dione] |  |  | 98 to 102 °C | 
11 | O=C1CC(c2c[nH]c3ccc(F)cc23)C(=O)N1CCCCN1CC=C(c2c[nH]c3ncccc23)CC1 (stereo not drawn) [Compound 10, 1-(4-(4-(1H-Pyrrolo[2,3-b]pyridin-3-yl)-3,6-dihydropyridin-1(2H)-yl)butyl)-3-(5-fluoro-1H-indol-3-yl)pyrrolidine-2,5-dione] |  |  |  | Ki (human 5-HT1A receptor [6]): 128 ± 12 nM; Ki [5, 7]: 77.6 ± 2.5 nM
12 | COc1ccc2[nH]cc(C3CC(=O)N(CCCCN4CC=C(c5c[nH]c6ncccc56)CC4)C3=O)c2c1 (stereo not drawn) [Compound 7, 1-(4-(4-(1H-Pyrrolo[2,3-b]pyridin-3-yl)-3,6-dihydropyridin-1(2H)-yl)butyl)-3-(5-methoxy-1H-indol-3-yl)pyrrolidine-2,5-dione] |  |  |  | Ki (human 5-HT1A receptor [6]): 824 ± 23.2 nM; Ki [5, 7]: 58.4 ± 4 nM
13 | COc1ccc2[nH]cc(C3CC(=O)N(CCCN4CC=C(c5c[nH]c6ccccc56)CC4)C3=O)c2c1 (stereo not drawn) [Compound 17] | 221 ± 11.5 nM | 782 ± 54 nM |  | 
14 | O=C1CC(c2c[nH]c3ccc(F)cc23)C(=O)N1CCCN1CC=C(c2c[nH]c3ncccc23)CC1 (stereo not drawn) (as salt: hydrochloride) [Compound 11, 1-(3-(4-(1H-Pyrrolo[2,3-b]pyridin-3-yl)-3,6-dihydropyridin-1(2H)-yl)propyl)-3-(5-fluoro-1H-indol-3-yl)pyrrolidine-2,5-dione] |  |  | 147 to 150 °C | 
15 | COc1ccc2[nH]cc(C3CC(=O)N(CCN4CC=C(c5c[nH]c6ncccc56)CC4)C3=O)c2c1 (stereo not drawn) [Compound 9, 1-(2-(4-(1H-Pyrrolo[2,3-b]pyridin-3-yl)-3,6-dihydropyridin-1(2H)-yl)ethyl)-3-(5-methoxy-1H-indol-3-yl)pyrrolidine-2,5-dione] |  |  |  | hNET screening procedure, displacement % [3]: 41% ^a; Ki [4]: 335 ± 14.8 nM; Selectivity Ratio hDAT/hSERT [4]: 3.6; Ki (α1-adrenoceptor): 319 ± 10.2 nM; Ki [5, 7]: 92 ± 8 nM
16 | O=C1CC(c2c[nH]c3ccccc23)C(=O)N1CCN1CC=C(c2c[nH]c3ncccc23)CC1 (stereo not drawn) [Compound 6, 1-(2-(4-(1H-Pyrrolo[2,3-b]pyridin-3-yl)-3,6-dihydropyridin-1(2H)-yl)ethyl)-3-(1H-indol-3-yl)pyrrolidine-2,5-dione] |  |  |  | hNET screening procedure, displacement % [3]: 37% ^a; Ki [4]: 916 ± 40.5 nM; Selectivity Ratio hDAT/hSERT [4]: 3.7; Ki (α1-adrenoceptor): 367 ± 55.2 nM; Ki [5, 7]: 245 ± 18 nM
17 | O=C1CC(c2c[nH]c3ccccc23)C(=O)N1CCCCN1CC=C(c2c[nH]c3ncccc23)CC1 (stereo not drawn) (as salt: hydrochloride) [Compound 4, 1-(4-(4-(1H-Pyrrolo[2,3-b]pyridin-3-yl)-3,6-dihydropyridin-1(2H)-yl)butyl)-3-(1H-indol-3-yl)pyrrolidine-2,5-dione] |  |  | 172 to 177 °C | 
18 | COc1ccc2[nH]cc(C3CC(=O)N(CCCN4CC=C(c5c[nH]c6ncccc56)CC4)C3=O)c2c1 (stereo not drawn) (as salt: hydrochloride) [Compound 8, 1-(3-(4-(1H-Pyrrolo[2,3-b]pyridin-3-yl)-3,6-dihydropyridin-1(2H)-yl)propyl)-3-(5-methoxy-1H-indol-3-yl)pyrrolidine-2,5-dione] |  |  | 111 to 115 °C | 
19 | O=C1CC(c2c[nH]c3ccccc23)C(=O)N1CCCN1CC=C(c2c[nH]c3ncccc23)CC1 (stereo not drawn) [Compound 5, 1-(3-(4-(1H-Pyrrolo[2,3-b]pyridin-3-yl)-3,6-dihydropyridin-1(2H)-yl)propyl)-3-(1H-indol-3-yl)pyrrolidine-2,5-dione] |  |  |  | Ki (human 5-HT1A receptor [6]): 2450 ± 24 nM; Ki [5]: 57.1 ± 3.2 nM
20 | Cc1ccc(N(CC2=NCCN2)c2cccc(O)c2)cc1 [phentolamine, reference compound] |  |  |  | Ki (α1-adrenoceptor): 11 ± 0.7 nM
21 | COc1ccc2[nH]cc(C3CC(=O)N(CCCCN4CC=C(c5c[nH]c6ccccc56)CC4)C3=O)c2c1 (stereo not drawn) [Compound 16] | 30.4 ± 1.8 nM | 2.6 ± 0.3 nM |  | 
22 | COc1ccc2[nH]cc(C3CC(=O)N(CCCCN4CC=C(c5c[nH]c6ncccc56)CC4)C3=O)c2c1 (stereo not drawn) (as salt: hydrochloride) [Compound 7, 1-(4-(4-(1H-Pyrrolo[2,3-b]pyridin-3-yl)-3,6-dihydropyridin-1(2H)-yl)butyl)-3-(5-methoxy-1H-indol-3-yl)pyrrolidine-2,5-dione] |  |  | 140 to 144 °C | 
23 | COc1ccc2[nH]cc(C3CC(=O)N(CCN4CC=C(c5c[nH]c6ncccc56)CC4)C3=O)c2c1 (stereo not drawn) (as salt: hydrochloride) [Compound 9, 1-(2-(4-(1H-Pyrrolo[2,3-b]pyridin-3-yl)-3,6-dihydropyridin-1(2H)-yl)ethyl)-3-(5-methoxy-1H-indol-3-yl)pyrrolidine-2,5-dione] |  |  | 129 to 132 °C | 
